In patent US3998963A, “Tertiary butyl substituted carbamoyl oxime pesticides” (priority 1975, dated 1976):
Converted amounts (≈) assume the structure as drawn. Where two headings read alike, the source gives them in different places.

Assays:
Format in all cases: in vivo
[1] = system: house flies (Musca domestica, L.); test: Fly Bait Test; details: for LC50: Musca domestica, 24 hours, read-out: Insect LD50, Housefly; for (b) relative efficacy of derivative vs parent compound, Housefly: formula of footnote b is drawing 8
Procedure: (§1) Suspensions of the test compouns were prepared by dissolving one gram of compound in 50 milliliters of acetone in which had been dissolved 0.1 gram (10 percent of the weight of compound) of an alkylphenoxy polyethoxyethanol surfactant, as an emulsifying or dispersing agent. The resulting solution was mixed into 150 milliliters of water to give roughly 200 milliliters of a suspension containing the compound in finely divided form. The thus-prepared stock suspension contained 0.5 percent by weight of compound. The test concentrations in parts per million by weight employed in the tests described hereinbelow were obtained by appropriate dilutions of the stock suspension with water. The test procedures were as follows:
Four to six day old adult house flies (Musca domestica, L.), reared according to the specifications of the Chemical Specialities Manufacturing Association (Blue Book, McNair-Dorland Co., N.Y. 1954; pages 243-244, 261) under controlled conditions of 80°±5° F. and 50±5 per cent relative humidity, were the test insects. The flies were immobilized by anesthetizing with carbon dioxide and twenty five immobilized individuals, males and females, were transferred to a cage consisting of a standard food strainer about five inches in diameter which was inverted over a wrapping-paper covered surface. The test compounds were formulated by diluting the stock suspension with a 10 per cent (by weight) sugar solution to give a suspension containing 500 parts of test compound per million parts of final formulation, by weight. Ten milliliters of the test formulation were added to a souffle cup containing a 1-inch square of an absorbent cotton pad. This bait cup was introduced and centered on the blotting paper under the food strainer prior to admitting the anesthetized flies. The caged flies were allowed to feed on the bait for 24 hours, at a temperature of 80°±5° F. and the relative humidity of 50±5 per cent.
(§2) In Table 1 are presented insect and rat toxicity data (bait tests) on a comparative basis of the compounds described above. […] Rat toxicity is also more meaningfully compared on the basis of molar weight LD50 values. The relative efficacy of the parent compounds as compared to the previously known derivatives and as compared to the new compounds of this invention is also shown in Table 1. The ratio of efficacy as contact poisons (immersion/bait) of the compounds tested against Armyworm and House Fly is presented in Table 2 along with the results of the phytotoxicity tests of the compounds on bean, corn, tomato and cotton.

[2] = Mammalian Toxicity (peroral, rat); details: rat, in vivo, po, peroral
Procedure: (§3) These compositions were also evaluated to determine their peroral toxicity to mammals by conventional methods. The animal selected for this experiment was the rat. The test results obtained are expressed in terms of the number of milligrams of composition per kilogram of weight of the animal required to achieve a mortality rate of 50 percent (LD50).
as §2

[3] = system: southern armyworm (Spodoptera eridania, (Cram.)); test: Southern Armyworm Leaf Spray Bait Test; details: for LC50: Spodoptera eridania, 72 h, leaf spray bait, 3 days, read-out: Insect LD50, Armyworm; for (b) relative efficacy of derivative vs parent compound, Armyworm: bait, formula of footnote b is drawing 8
Procedure: as §1
Southern Armyworm Leaf Spray Bait Test
Larvae of the southern armyworm (Spodoptera eridania, (Cram.)), reared on Tendergreen bean plants at a temperature of 80°±5° F. and a relative humidity of 50±5 per cent, constituted the test insects.
The test compounds were formulated by diluting the stock suspension with water to give a suspension containing 500 parts of test compound per million parts of final formulation. Potted Tendergreen bean plants of standard height and age were placed on a revolving turntable and sprayed with 100-110 milliliters of test compound formulation by use of a DeVilbiss spray gun set at 10 psig air pressure. This application, which lasted 25 seconds, was sufficient to wet plants to run-off. As a control, 100-110 milliliters of a water-acetone-emulsifier solution containing no test compound were also sprayed on infested plants. When dry, the paired leaves were separated and each one was placed in a 9 centimeter Petri dish lined with moistened filter paper. Five randomly selected larvae were introduced into each dish and the dishes were closed. The closed dishes were labeled and held at 80°-85° F. for 3 days. Although the larvae could easily consume the whole leaf within 24 hours, no more food was added. Larvae which were unable to move the length of the body, even upon stimulation by prodding, were considered dead. Per cent mortality was recorded for various concentration levels.
as §2

[4] = system: houseflies (Musca domestica, L.); test: Fly Immersion Test; details: for LC50: Musca domestica, immersion (contact), 24 hours, read-out: Imm LD50, Housefly; for contact vs stomach poison, house fly (in words): immersion vs bait; for (Imm/Bait), Housefly: ratio immersion/bait LD50
Procedure: as §1
The test organisms used were 4 to 6 day old adult houseflies (Musca domestica, L.) reared under controlled conditions of 80° + 5° F. and 50 + 5 percent relative humidity. The adult flies were immobilized by anesthetizing with CO2. Twenty-five immobilized individuals (males and females) were then used for the test of each test compound.
Twenty-five randomly selected adult flies were thoroughly wetted in a formulated mixture of the test chemical (50 ml) by pouring the insects and formulation from one beaker to another six times. Excess liquid was removed by transferring the insects into a standard food strainer (5-inch diameter) which was then blotted with a paper towel. The treated flies were transferred to clean food strainer which was inverted over a paper cup containing a wad of cotton saturated with a 10 percent aqueous sugar solution provided as food for surviving insects. An equivalent amount of a water solution containing acetone and emulsifier in the same concentrations as the insecticidal mixture but without the candidate insecticide was applied to other flies in the same manner. These insects serve as controls for the experiment.
The surviving caged flies were allowed to feed on the sugar water for a period of 24 hours. Room temperature and humidity are 80° + 5° F. and 50 + 5 percent relative humidity, respectively. At the end of the holding period flies which show no sign of movement upon stimulation were considered dead.
as §2

[5] = system: southern armyworm (Spodoptera eridania, (Cram.)); test: Armyworm Immersion Test; details: for LC50: Spodoptera eridania, 72 h, immersion (contact), 3 days, read-out: Imm LD50, Armyworm; for contact vs stomach poison, army worm (in words): immersion vs bait; for (Imm/Bait), Armyworm: ratio immersion/bait LD50
Procedure: as §1
The test organism used was the fourth instar larvae of the southern armyworm (Spodoptera eridania, (Cram.)) reared on Tendergreen beans in a room where temperature was held at 80° ± 5° F. and relaitve humidity 50 ± 5 percent.
Ten randomly selected larvae were thoroughly wetted in a formulated mixture of the chemical (50 ml) by pouring the insects and formulation from one beaker to another six times. Excess liquid was removed by transferring the larvae to paper towels. An equivalent amount of a water solution containing acetone and emulsifier in the same concentrations as the insecticidal mixture but without the candidate insecticide was applied in the same manner as a controls for the experiment. When dry, 5 larvae were placed in each of two 9-cm Petri dishes lined with filter paper and containing one fully expanded Tendergreen bean leaf per dish as food.
The closed dishes were held at 80°-85° F. for 3 days. Although the larvae can easily consume the whole leaf within 24 hours, no more food was added. Check larvae remained vigorous during the entire holding period. At the end of the holding period larvae which were unable to move the length of the body, even upon stimulation, were considered dead.
as §2

[6] = system: rat; test: Mammalian Toxicity (peroral, rat); details: for (b) relative value of derivative vs parent compound, Rat LD50: peroral, formula of footnote b is drawing 8; for mammalian toxicity (in words): text statement
Procedure: as §3, §2

[7] = Table II, read-out: Rat Tox. LD50
[8] = molar weight LD50, Table I, read-out: Rat LD50/mole wt. [a]

## CNC(=O)ON=C(C)SC(C)C [Compound 2]
[1]
  LC50: 11 µg/mL (≈ 57.8 µM)
[2]; Table I, read-out: Rat LD50
  LD50: 7.7 mg/kg
[2]; [7]
  LD50: 7.7 mg/kg
[2]; [8]
  LD50: 40 µmol/kg
[3]
  LC50: 17 µg/mL (≈ 89.3 µM)
[4]
  LC50: 66 µg/mL (≈ 347 µM)
  contact vs stomach poison, house fly (in words): significantly more toxic as stomach poisons than as contact poisons
  (Imm/Bait), Housefly: 6
[5]
  LC50: 53 µg/mL (≈ 279 µM)
  contact vs stomach poison, army worm (in words): significantly more toxic as stomach poisons than as contact poisons
  (Imm/Bait), Armyworm: 3.1

## CNC(=O)ON=C(C)SC [Compound 1, O-(methylcarbamoyl) S-methyl acetothiolhydroximate]
[1]
  LC50: 4 µg/mL (≈ 24.7 µM)
[2]; Table I, read-out: Rat LD50
  LD50: 48.5 mg/kg
[2]; [7]
  LD50: 48.5 mg/kg
[2]; read-out: rat LD50 (molar)
  LD50: 330 µmol/kg
[3]
  LC50: 11 µg/mL (≈ 67.8 µM)
[4]
  LC50: 32 µg/mL (≈ 197 µM)
  contact vs stomach poison, house fly (in words): significantly more toxic as stomach poisons than as contact poisons
  (Imm/Bait), Housefly: 8
[5]
  LC50: 8 µg/mL (≈ 49.3 µM)
  contact vs stomach poison, army worm (in words): significantly more toxic as stomach poisons than as contact poisons
  (Imm/Bait), Armyworm: 2

## CC(=NOC(=O)N(C)Sc1ccc(C(C)(C)C)cc1)SC(C)C [Compound 9, O-[N-Methyl-N-[4-(t-Butylphenyl)sulfenyl]carbamoyl] S-Isopropyl Thiolacetohydroximate]
[1]
  LC50: 50 µg/mL (≈ 141 µM)
  (b) relative efficacy of derivative vs parent compound, Housefly: 0.43
[2]; Table I, read-out: Rat LD50
  LD50: 71.3 mg/kg
[2]; [7]
  LD50: 71.3 mg/kg
[2]; [8]
  LD50: 200 µmol/kg
[6]
  (b) relative value of derivative vs parent compound, Rat LD50: 0.2
  mammalian toxicity (in words): substantial reduction in mammalian toxicity
[6]; listed as O-[ N-methyl-N-[4-(t-butylphenyl) sulfenyl] carbamoyl] S-isopropyl thiolacetohyd
  mammalian toxicity (in words): very low level of mammalian toxicity
[3]
  LC50: 19 µg/mL (≈ 53.6 µM)
  (b) relative efficacy of derivative vs parent compound, Armyworm: 1.6
[4]
  LC50: 10 µg/mL (≈ 28.2 µM)
  (Imm/Bait), Housefly: 0.2
[5]
  LC50: 5 µg/mL (≈ 14.1 µM)
  (Imm/Bait), Armyworm: 0.25

## CC(=NOC(=O)N(C)Sc1ccc(Cl)cc1)SC(C)C [Compound 5]
[1]
  LC50: 50 µg/mL (≈ 150 µM)
  (b) relative efficacy of derivative vs parent compound, Housefly: 0.4
[2]; Table I, read-out: Rat LD50
  LD50: 16.2 mg/kg
[2]; [7]
  LD50: 16.2 mg/kg
[2]; [8]
  LD50: 48 µmol/kg
[6]
  (b) relative value of derivative vs parent compound, Rat LD50: 0.83
[3]
  LC50: 30 µg/mL (≈ 90.1 µM)
  (b) relative efficacy of derivative vs parent compound, Armyworm: 1.0
[4]
  LC50: 25 µg/mL (≈ 75.1 µM)
  (Imm/Bait), Housefly: 0.5
[5]
  LC50: 4.5 µg/mL (≈ 13.5 µM)
  (Imm/Bait), Armyworm: 0.15

## CSC(C)=NOC(=O)N(C)Sc1ccc(C(C)(C)C)cc1 [Compound 8, O-[N-Methyl-N-[4-(t-butylphenyl)sulfenyl]carbamoyl] S-Methyl Acetothiolhydroximate]
[1]
  LC50: 17 µg/mL (≈ 52.1 µM)
  (b) relative efficacy of derivative vs parent compound, Housefly: 0.4
[2]; Table I, read-out: Rat LD50
  LD50: 196 mg/kg
[2]; [7]
  LD50: 196 mg/kg
[2]; read-out: rat LD50 (molar)
  LD50: 600 µmol/kg
[6]
  (b) relative value of derivative vs parent compound, Rat LD50: 0.5
  mammalian toxicity (in words): extremely low mammalian toxicity
[6]; vs parent compound, molar basis
  safety relative to the parent (molar): about twice as safe as the parent
[6]; vs parent compound, weight basis
  less toxic to mammals than its parent compound, weight basis: at least 4 times
[3]
  LC50: 4 µg/mL (≈ 12.3 µM)
  (b) relative efficacy of derivative vs parent compound, Armyworm: 5.7
[4]
  LC50: 14 µg/mL (≈ 42.9 µM)
  contact vs stomach poison, house fly (in words): outstanding contact poison
  (Imm/Bait), Housefly: 0.8
[5]
  LC50: 4 µg/mL (≈ 12.3 µM)
  contact vs stomach poison, army worm (in words): outstanding contact poison
  (Imm/Bait), Armyworm: 1

## CCSC(C)=NOC(=O)NC [Compound 3]
[1]
  LC50: 3 µg/mL (≈ 17 µM)
[2]; [7]
  LD50: 17.7 mg/kg
[3]
  LC50: 11 µg/mL (≈ 62.4 µM)

## CC(=NOC(=O)N(C)Sc1ccc(C)cc1)SC(C)C [Compound 7]
[1]
  LC50: 50 µg/mL (≈ 160 µM)
  (b) relative efficacy of derivative vs parent compound, Housefly: 0.38
[2]; Table I, read-out: Rat LD50
  LD50: 18.7 mg/kg
[2]; [7]
  LD50: 16.2 mg/kg
[2]; [8]
  LD50: 60 µmol/kg
[6]
  (b) relative value of derivative vs parent compound, Rat LD50: 0.67
[3]
  LC50: 12 µg/mL (≈ 38.4 µM)
  (b) relative efficacy of derivative vs parent compound, Armyworm: 2.3
[4]
  LC50: 25 µg/mL (≈ 80 µM)
  (Imm/Bait), Housefly: 0.5
[5]
  LC50: 14.4 µg/mL (≈ 46.1 µM)
  (Imm/Bait), Armyworm: 1.2

## CSC(C)=NOC(=O)N(C)Sc1ccc(Cl)cc1 [Compound 4]
[1]
  LC50: 8 µg/mL (≈ 26.2 µM)
[2]; Table I, read-out: Rat LD50
  LD50: 65 mg/kg
[2]; [7]
  LD50: 65 mg/kg
[2]; [8]
  LD50: 210 µmol/kg
[6]
  (b) relative value of derivative vs parent compound, Rat LD50: 1.43
[3]
  LC50: 10 µg/mL (≈ 32.8 µM)
  (b) relative efficacy of derivative vs parent compound, Armyworm: 2.1
[4]
  LC50: 24 µg/mL (≈ 78.7 µM)
  (Imm/Bait), Housefly: 3
[5]
  LC50: 47 µg/mL (≈ 154 µM)
  (Imm/Bait), Armyworm: 0.47

## CSC(C)=NOC(=O)N(C)Sc1ccc(C)cc1 [Compound 6]
[1]
  LC50: 2 µg/mL (≈ 7.03 µM)
[2]; Table I, read-out: Rat LD50
  LD50: 56.6 mg/kg
[2]; [7]
  LD50: 56.6 mg/kg
[2]; read-out: rat LD50 (molar)
  LD50: 200 µmol/kg
[6]; molar LD50 comparison, vs compound 1
  more toxic to mammals than the parent compound: at least 50%
[6]
  (b) relative value of derivative vs parent compound, Rat LD50: 1.5
[3]
  LC50: 6 µg/mL (≈ 21.1 µM)
  (b) relative efficacy of derivative vs parent compound, Armyworm: 3.2
[4]
  LC50: 14 µg/mL (≈ 49.2 µM)
  (Imm/Bait), Housefly: 7
[5]
  LC50: 10 µg/mL (≈ 35.2 µM)
  (Imm/Bait), Armyworm: 1.7
